Tests used:
Details in all cases: incubation time: 72 h
BT-474 = test: drug sensitivity score (DSS), CellTiter-Blue viability (DSS (AUC-based score)); higher = stronger viability inhibition; extreme values may be limits of the assay
In short: (§1)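 The drug sensitivity score was derived from the area under a fitted dose-response curve. To obtain the curves, breast cancer cells (20 µl suspension) were plated into 384-well plates with compound at 5 or 9 concentrations and kept for 72 h. Viability was measured by CellTiter-Blue fluorescence at 560/590 nm, with each plate normalised to 0.1 % DMSO and a positive kill control.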

BT-549 [1] = test: as above
In short: as §1

CAL-120 [2] = test: as above
In short: as §1

CAL-148 [3] = test: as above
In short: as §1

CAL-51 = test: as above
In short: as §1

CAL-85-1 [4] = test: as above
In short: as §1

DU-4475 [5] = test: as above
In short: as §1

HCC1143 = test: as above
In short: as §1

HCC1599 = test: as above
In short: as §1

HCC1937 [6] = test: as above
In short: as §1

HDQ-P1 = test: as above
In short: as §1

Hs578T [7] = test: as above
In short: as §1

MDA-MB-231 = test: as above
In short: as §1

MDA-MB-436 = test: as above
In short: as §1

MDA-MB-468 [8] = test: as above
In short: as §1

MFM-223 = test: as above
In short: as §1

SK-BR-3 = test: as above
In short: as §1

BT-549 [9] = test: drug sensitivity score (DSS), CellTox Green (DSS (AUC-based score)); higher = stronger drug effect (viability inhibition or cytotoxicity); extreme values may be limits of the assay
In short: (§2)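 Breast cancer cell lines were seeded in 20 µl suspension into 384-well plates already holding compound and incubated for 72 h. Each compound was tested at 5 concentrations in 10-fold steps across its own 10,000-fold range. Plates were normalised to 0.1 % DMSO and a positive kill control after CellTox Green and then CellTiter-Glo readings. The area under the fitted dose-response curve served as the basis for the drug sensitivity score.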

CAL-120 [10] = test: as above
In short: as §2

CAL-148 [11] = test: as above
In short: as §2

CAL-85-1 [12] = test: as above
In short: as §2

DU-4475 [13] = test: as above
In short: as §2

HCC1937 [14] = test: as above
In short: as §2

Hs578T [15] = test: as above
In short: as §2

MCF-10A = test: as above
In short: as §2

MDA-MB-468 [16] = test: as above
In short: as §2

Structure (SMILES)	drug sensitivity score (BT-474)	drug sensitivity score (BT-549 [1])	drug sensitivity score (CAL-120 [2])	drug sensitivity score (CAL-148 [3])	drug sensitivity score (CAL-51)	drug sensitivity score (CAL-85-1 [4])	drug sensitivity score (DU-4475 [5])	drug sensitivity score (HCC1143)	drug sensitivity score (HCC1599)	drug sensitivity score (HCC1937 [6])	drug sensitivity score (HDQ-P1)	drug sensitivity score (Hs578T [7])	drug sensitivity score (MDA-MB-231)	drug sensitivity score (MDA-MB-436)	drug sensitivity score (MDA-MB-468 [8])	drug sensitivity score (MFM-223)	drug sensitivity score (SK-BR-3)	drug sensitivity score (BT-549 [9])	drug sensitivity score (CAL-120 [10])	drug sensitivity score (CAL-148 [11])	drug sensitivity score (CAL-85-1 [12])	drug sensitivity score (DU-4475 [13])	drug sensitivity score (HCC1937 [14])	drug sensitivity score (Hs578T [15])	drug sensitivity score (MCF-10A)	drug sensitivity score (MDA-MB-468 [16])
Cc1ccc(C(=O)N(CCCN)[C@@H](c2oc3cc(Cl)ccc3c(=O)c2Cc2ccccc2)C(C)C)cc1	21.6	24.4	27.6	23.3	20.1	19.9	20.2	19.5	0	29.8	10.1	25.7	31.2	13.4	23.8	18.1	31.6	0	0	0	0	0	0	2.03	0	0
CO[C@H]1/C=C\C=C(/C)C(=O)NC2=CC(=O)C(NCCN(C)C)=C(C[C@@H](C)C[C@H](OC)[C@H](O)[C@@H](C)/C=C(\C)[C@@H]1OC(N)=O)C2=O [Alvespimycin]	14.6	20	15.3	16.9	14	13.7	21.9	11.5	10.5	17.2	13.8	16.5	12.2	16.1	10.4	18.7	20.9	0	0.117	9.12	6.41	4.5	1.6	7.05	13	1.6
CCC1(c2ccc(N)cc2)CCC(=O)NC1=O (stereo not drawn) [Aminoglutethimide]	0	0	0	0	0	0	0	0	0	0	0	0	0	0	0	0	0	0	0	0	0	0	0	0	0	0
COc1cc2nccc(Oc3ccc(NC(=O)C4(C(=O)Nc5ccc(F)cc5)CC4)cc3)c2cc1OC [Cabozantinib]	0	0	0	0.402	0	0	0	0	0	0	0	0	0	0	0	0	0	0	0	0	0	0	0	0	0	0
C[C@@H](Oc1cc(-c2cnn(C3CCNCC3)c2)cnc1N)c1c(Cl)ccc(F)c1Cl [Crizotinib]	5.02	1.89	6.42	2.67	4.08	3.39	3.43	2.03	0	6.92	1.42	1.65	9.17	14.8	4.88	4.74	4.22	0	0	0	0	0	0	0	0	0
CN(C)/N=N/c1[nH]cnc1C(N)=O [Dacarbazine]	0	0	0	0	0	0	0	0	0	0	0	0	0	0	0	0	0	0	0	2.9	0	0	3.14	0	0	0
Cc1ccc(-n2nc(C(C)(C)C)cc2NC(=O)Nc2ccc(OCCN3CCOCC3)c3ccccc23)cc1 [Doramapimod]	0	0	0	0	0	6.15	0	0	0	0	0	0	0	0	0	0	0	0	0	0	0	0	0	3.19	0	0
C#Cc1cccc(Nc2ncnc3cc(OCCOC)c(OCCOC)cc23)c1 [Erlotinib]	4.23	0	3.43	5.88	0	8.53	0	0	3.83	4.19	7.17	0	0	2.82	5.57	0	3.78	0	0	0	6.41	0	0	0	0	0
COc1cc([C@@H]2c3cc4c(cc3[C@@H](O[C@@H]3O[C@@H]5CO[C@@H](C)O[C@H]5[C@H](O)[C@H]3O)[C@H]3COC(=O)[C@H]23)OCO4)cc(OC)c1O [Etoposide]	0.298	11	4.94	10.3	14.5	2.33	19.8	7.4	2.06	6.25	3.32	5.23	3.4	3.41	6.16	0	11.9	0	1.57	5.65	1.64	0.895	0	20.3	0	7.2
CC1(C)NC(=O)N(c2ccc([N+](=O)[O-])c(C(F)(F)F)c2)C1=O [Nilutamide]	0	0	0	0	0	0	0	0	0	0	0	0	0	0	0	0	0	0	0	0	0	0	0	0	0	0
CNCc1ccc(-c2[nH]c3cc(F)cc4c3c2CCNC4=O)cc1 [Rucaparib]	0	0	0	1.96	1.41	0	0	0	0	6.08	0	0	2.45	0	0	1.28	0	0	0	0	0	0	0	1.33	0	10.6
N[C@@H](CSC(c1ccccc1)(c1ccccc1)c1ccccc1)C(=O)O [S-trityl-L-cysteine]	4.93	2.15	10.4	0	0	0	0	1.21	0	16.4	0	12.9	14.7	4.31	12	0	15.5	0	0	0	0	0	3.46	0	0	0
CN(N=O)C(=O)N[C@@H](C=O)[C@@H](O)[C@H](O)[C@H](O)CO [Streptozocin]	0	0	0	0	0	0	0	0	0	3.78	0	0	0	0	0	0	0	0	0	0	0	0	0	0	0	3.14

— the supplement of paper PMC4862054
